Results taken from patent US20100297223A1, “PHARMACEUTICAL DOSAGE FORM COMPRISING A LIQUID OR FLOWABLE CORE COMPOSITION” (ABBOTT GMBH & CO. KG, priority 2007, published 2010).

Assays:
[1] = Water activity aw of capsule fill (Pawkit water activity meter); type: physicochemical; settings: fill emptied from gelatine capsules size 00, 24 h after capsule preparation
Excerpt: Water activity aw is a measure of unbound free water in a system that is available to support chemical (or biological) reactions. It is defined as the vapour pressure of water divided by that of pure water at the same temperature. When a composition is in moisture equilibrium with its environment, its water activity is quantitatively equal to the relative humidity in head space of a container containing the composition, divided by 100. In particular during prolonged periods of storage, an excess of free water will migrate into the capsule shell and soften and eventually liquefy the capsule material. There are several factors that control water activity in a system. Dissolved species, e.g. salts, or sugars, interact with water through dipole-dipole, ionic, and hydrogen bonds. […] Water activity can be measured with commercially available equipment, such as the Pawkit water activity meter available from Decagon Devices, Inc. For the purposes herein, the water activity aw is suitably measured at a temperature of 25° C. […]
Twenty-four hours after the capsule preparation, the initial values of water activity and mechanical strength of the capsule shell were measured.
Capsules were stored for three months at 25° C., 60% relative humidity and 40° C., 75% relative humidity, respectively. Then, water activity and mechanical strength of the capsule shell were measured. […]

Miscibility with water = type: physicochemical

aw (water activity), Initial [1]: 0.12 | Miscibility with water (Miscibility with water): miscible with water in any ratio
SMILES: CC(CCN1CCCC1=O)N1CCCC1=O (centres unmarked) [1,3-bis-(pyrrolidon-1-yl)-butane]
